How the values were obtained:
[1] = biological target: 5-hydroxytryptamine receptor 4 (Rattus norvegicus) (UniProt Q62758); assay: Tested for its efficacy against the 5-hydroxytryptamine 4 receptor located in the rat esophageal tunica muscularis mucosae; assay type: tissue-based; details: Muscularis mucosa
[2] = biological target: T1, Serotonin 3 (5-HT3) receptor (Rattus norvegicus, UniProt P35563+Q9JJ16); assay: Tested for its binding affinity by measuring its ability to displace [3H]granisetron from 5-hydroxytryptamine 3 receptor in rat cortex
T1 sequence (P35563 whole entry): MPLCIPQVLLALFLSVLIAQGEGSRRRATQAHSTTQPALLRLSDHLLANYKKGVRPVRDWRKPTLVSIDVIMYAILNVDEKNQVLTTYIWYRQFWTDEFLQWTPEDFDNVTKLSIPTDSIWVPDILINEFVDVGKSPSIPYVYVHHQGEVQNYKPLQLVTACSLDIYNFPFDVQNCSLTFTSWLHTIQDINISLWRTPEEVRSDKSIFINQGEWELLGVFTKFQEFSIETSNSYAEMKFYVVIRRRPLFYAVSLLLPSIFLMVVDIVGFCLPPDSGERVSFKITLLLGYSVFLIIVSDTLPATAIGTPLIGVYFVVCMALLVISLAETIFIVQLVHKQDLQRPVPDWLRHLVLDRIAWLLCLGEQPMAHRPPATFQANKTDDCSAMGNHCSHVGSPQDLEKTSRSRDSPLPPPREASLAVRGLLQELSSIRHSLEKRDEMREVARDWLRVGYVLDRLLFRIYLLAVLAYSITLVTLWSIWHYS
T1 sequence (Q9JJ16 whole entry): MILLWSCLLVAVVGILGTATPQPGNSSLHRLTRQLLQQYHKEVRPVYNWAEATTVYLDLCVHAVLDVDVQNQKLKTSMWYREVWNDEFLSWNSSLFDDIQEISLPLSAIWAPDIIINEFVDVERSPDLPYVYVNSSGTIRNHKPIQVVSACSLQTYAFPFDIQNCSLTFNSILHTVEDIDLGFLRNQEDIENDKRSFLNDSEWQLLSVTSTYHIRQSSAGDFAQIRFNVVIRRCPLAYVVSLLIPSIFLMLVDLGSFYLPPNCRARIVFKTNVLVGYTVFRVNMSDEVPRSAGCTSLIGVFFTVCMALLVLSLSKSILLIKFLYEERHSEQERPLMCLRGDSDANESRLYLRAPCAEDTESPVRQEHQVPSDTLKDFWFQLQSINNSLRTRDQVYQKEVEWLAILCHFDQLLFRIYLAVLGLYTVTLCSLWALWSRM

[3] = biological target: 5-hydroxytryptamine receptor 4 (Rattus norvegicus, UniProt Q62758); assay: Tested for its agonist potency against the 5-hydroxytryptamine 4 receptor located in the rat esophageal tunica muscularis mucosae; assay type: functional, tissue-based, Muscularis mucosa
5-hydroxytryptamine receptor 4, sequence (Q62758 whole entry): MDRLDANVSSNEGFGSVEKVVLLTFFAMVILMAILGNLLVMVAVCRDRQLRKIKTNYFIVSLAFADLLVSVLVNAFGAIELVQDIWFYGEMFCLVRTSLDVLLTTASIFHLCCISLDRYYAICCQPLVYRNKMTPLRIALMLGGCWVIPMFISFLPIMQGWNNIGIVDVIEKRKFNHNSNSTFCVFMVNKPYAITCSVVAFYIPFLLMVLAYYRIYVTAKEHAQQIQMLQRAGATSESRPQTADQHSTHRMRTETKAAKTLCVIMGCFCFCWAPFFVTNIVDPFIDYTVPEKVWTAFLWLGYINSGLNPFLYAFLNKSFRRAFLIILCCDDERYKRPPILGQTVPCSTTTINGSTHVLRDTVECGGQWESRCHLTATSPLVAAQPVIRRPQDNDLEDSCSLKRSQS

5-hydroxytryptamine receptor 4 (Rattus norvegicus), sequence (Q62758 whole entry): as above

SMILES	Intrinsic activity [1]	Ki [2]	EC50 [3]
CCN(CC)CCNC(=O)c1cc(Cl)c(N)cc1OC [METOCLOPRAMIDE]	0.8	158 nM	–
CC(C)n1c(=O)n(C(=O)NC2CC3CCC(C2)N3C)c2ccccc21 (centres undefined)	0.9	1.58 nM	12.6 nM
CCCC[N+]12CCCC(C1)C(NC(=O)c1cc(Cl)c(N)cc1OC)CC2 (centres undefined)	0.79	126 nM	9.55 nM
COc1cc(N)c(Cl)cc1C(=O)NC1CCN2CCCC1C2 (centres undefined) [RENZAPRIDE]	0.8	5.01 nM	63.1 nM
CCn1c(=O)n(C(=O)NC2CC3CCC(C2)N3C)c2ccccc21 (centres undefined)	0.7	3.98 nM	10 nM

Source: ChEMBL document CHEMBL1152038, “Quaternised renzapride as a potent and selective 5-HT4 receptor agonist” (Bioorg Med Chem Lett, 1993)
